Test results reported in US12280036B2, “Using fatty acid synthase inhibitors to treat fibrosis” (Mayo Foundation for Medical Education and Research, priority 2016, dated 2025).

Experiments:
[1] = system: profibrotic TGFβ signaling; experiment: Western blot of TGFβ induced profibrotic proteins in AKR-2B fibroblasts; format: cell-based, murine; conditions: C75 3 μM, TGFβ 10 ng/ml, 24 hours
Method: (§1) Murine fibroblasts (AKR-2B) and human lung fibroblasts (MRCS) were treated for 24 hours with vehicle (0.025% DMSO) or C75 (FASN inhibitor, 3 μM) in the presence or absence of TGFβ (10 ng/ml). Proteins were obtained from treated and control cells. Protein samples were Western blotted for FASN, Col I, Col IV, FN, CTGF, and pSmad3, and Western blotted for GAPDH as a loading control. TGFβ increased expression of FASN, Col I, Col IV, FN, CTGF, and pSmad3, but inhibition of FASN activity with C75 suppressed TGFβ induced Col I, Col IV, and FN expression (FIG. 4A).
(§2) Murine fibroblasts (AKR-2B) and human lung fibroblasts (MRCS) were transfected with either a nontargeting control siRNA (60 nmol/L) or with FASN-targeting siRNA (60 nmol/L). After 72 hours of cultivation, the transient transfectants were stimulated in the absence or presence of 10 ng/ml TGFβ for 24 hours. Proteins were obtained from treated and control cells. Protein samples were Western blotted for FASN, Col I, Col IV, FN, CTGF, and pSmad3, and Western blotted for GAPDH as a loading control. TGFβ increased expression of FASN, Col I, Col IV, FN, CTGF, and pSmad3, but inhibition of FASN activity with FASN-targeting siRNA suppressed TGFβ induced Col I, Col IV, and FN expression (FIG. 5A).

[2] = system: profibrotic TGFβ signaling; experiment: Western blot of TGFβ induced profibrotic proteins in MRCS lung fibroblasts; format: cell-based, human; conditions: C75 3 μM, TGFβ 10 ng/ml, 24 hours
Method: as §1, §2

AKR-2B cells [3] = experiment: Soft agar colony formation assay; format: cell-based, murine; conditions: 0, 0.3, 1, 3, or 10 μM C75, TGFβ 10 ng/ml, 7 days growth, dose dependent
Method: Murine fibroblasts (AKR-2B) were treated for 24 hours with vehicle (0.025% DMSO) or C75 (FASN inhibitor, 3 μM) in the presence or absence of TGFβ (10 ng/ml), and 0, 0.3, 1, 3, or 10 μM C75. Following 7 days growth, cells were subjected to soft agar colony formation assays. TGFβ increased colony formation, but inhibition of FASN activity with C75 suppressed TGFβ induced colony formation in a dose dependent manner (FIG. 4B; *p-value<0.05, **p-value<0.01). Data reflect the mean+/−standard deviation of triplicate wells from 3 experiments.
Murine fibroblasts (AKR-2B) were transfected with either a nontargeting control siRNA (60 nmol/L) or with FASN-targeting siRNA (60 nmol/L). After 72 hours of cultivation, the transient transfectants were stimulated in the absence or presence of 10 ng/ml TGFβ for 24 hours. Following 7 days growth, cells were subjected to soft agar colony formation assays. TGFβ increased colony formation, but inhibition of FASN activity with FASN-targeting siRNA suppressed TGFβ induced colony formation (FIG. 5B; **p-value<0.01). Data reflect the mean standard deviation of triplicate wells from 3 experiments.

AKR-2B cells [4] = experiment: Scratch assay (cell migration), AKR-2B; format: cell-based, murine; conditions: C75 3 μM, TGFβ 10 ng/ml, 24 hours
Method: (§3) Murine fibroblasts (AKR-2B) and human lung fibroblasts (MRCS) were treated for 24 hours with vehicle (0.025% DMSO), TGFβ (10 ng/ml), or both TGFβ (10 ng/ml) and C75 (3 μM). Following 24 hours of treatment, culture plates were manually scratched. TGFβ increased cell migration, but inhibition of FASN activity with C75 suppressed TGFβ induced cell migration (FIG. 4C). Data are representative of 3 separate experiments.
Murine (AKR-2B) lung fibroblasts were transfected with either a nontargeting control siRNA (60 nmol/L) or with FASN-targeting siRNA (60 nmol/L). After 72 hours of cultivation, the transient transfectants were stimulated in the absence or presence of 10 ng/ml TGFβ for 24 hours. Following 24 hours of treatment, culture plates were manually scratched. TGFβ increased cell migration, but inhibition of FASN activity with FASN-targeting siRNA suppressed TGFβ induced cell migration (FIG. 5C). Data are representative of 3 separate experiments.

MRCS cells [5] = experiment: Scratch assay (cell migration), MRCS; format: cell-based, human; conditions: C75 3 μM, TGFβ 10 ng/ml, 24 hours
Method: as §3

AKR-2B cells [6] = experiment: In vitro cell proliferation (MTT assay and cell counts), AKR-2B; format: cell-based, murine; conditions: C75 3 μM, 0.1% FBS or 10% FBS
Method: (§4) Murine fibroblasts (AKR-2B) and human lung fibroblasts (MRCS) were seeded at 2.5×10^3 or 1×10^4 cells/96 well plate, respectively. AKR-2B cells were seeded in medium containing 10% DMEM/FBS, and MRCS cells were seeded in medium containing 10% EMEM/FBS. 24 hours after seeding, the medium was removed and replaced with DMEM or EMEM containing vehicle (0.1% DMSO), or C75 (3 μM) either in 10%, 0.1%, or 0% FBS for 24 hours prior to MTT assay (FIG. 6A). Absorbance was measured at 570 nm. Results represent mean±SEM from three independent experiments
as §4, with “1.0×10^4 cells/well in 24” for “2.5×10^3 or 1×10^4 cells/96”, “plates for 24 hours.” for “plate, respectively.”, “determining cell counts following an additional 24 hour and 48 hour incubation” for “MTT assay”, “6B).” for “6A). Absorbance was measured at 570 nm.”, “experiments.” for “experiments”

MRCS cells [7] = experiment: In vitro cell proliferation (MTT assay and cell counts), MRCS; format: cell-based, human; conditions: C75 3 μM, FBS free or 10% FBS
Method: as §4
as §4, with “1.0×10^4 cells/well in 24” for “2.5×10^3 or 1×10^4 cells/96”, “plates for 24 hours.” for “plate, respectively.”, “determining cell counts following an additional 24 hour and 48 hour incubation” for “MTT assay”, “6B).” for “6A). Absorbance was measured at 570 nm.”, “experiments.” for “experiments”

[8] = Serum liver enzymes in bleomycin or saline challenged mice; format: in vivo, C57BL/6 mice; conditions: 3.0 mg/kg C75 every 4th day from day 14; blood at days 0, 14, and 28
Method: C57BL/6 mice were intratracheally treated with an equal volume of saline (control) or bleomycin (BLM; 0.075 U). On day 14 all animals began treatment every 4th day with either vehicle (Methocel/saline) or 3.0 mg/kg of C75. Blood samples were obtained at days 0, 14, and 28 from the facial vein of unanesthetized animals and assessed for effect on liver enzymes. Serum levels (U/L, units per liter; g/dL, grams per deciliter) of alkaline phosphatase (ALP), alanine aminotransferase (ALT), and albumin were determined using a Piccolo Xpress Chemistry Analyzer (FIG. 7A). Data are presented as mean+/−SEM of n=5.

[9] = Blood inflammatory cells in bleomycin or saline challenged mice; format: in vivo, C57BL/6 mice; conditions: 3.0 mg/kg C75 every 4th day from day 14; blood at days 0, 14, and 28
Method: C57BL/6 mice were intratracheally treated with an equal volume of saline (control) or bleomycin (BLM; 0.075 U). On day 14 all animals began treatment every 4th day with either vehicle (Methocel/saline) or 3.0 mg/kg of C75. Blood samples were obtained at days 0, 14, and 28 from the facial vein of unanesthetized animals and assessed for effect on inflammatory cells. Quantification of lymphocytes, monocytes, and neutrophils were measured using a VetScan HM5 Analyzer (FIG. 7B). Data are presented as mean+/−SEM of n=5.

FN, CTGF, and Col I = experiment: qPCR of profibrotic genes in lung tissue of bleomycin challenged mice; format: in vivo; conditions: 0.03, 0.3, or 3 mg/kg C75 intraperitoneal every 4th day from day 14, lung harvested day 28, dose dependent
Method: Mice were challenged with bleomycin or vehicle (methocel/0.1% DMSO), and every 4th day, beginning 14 days following initial bleomycin insult, were treated by intraperitoneal injection with vehicle, 0.03 mg/kg, 0.3 mg/kg, or 3 mg/kg C75. Murine lung tissue was harvested on day 28 and RNA was obtained. qPCR was performed using primers specific for FN, CTGF, and Col I.
Data reflect mean standard deviation from lungs of n=5 (control, bleomycin, 0.03 mg/kg C75), 7 (0.3 mg/kg C75), or 8 (3 mg/kg C75) animals.

[10] = Oxygen saturation (SpO2) in bleomycin challenged mice; format: in vivo; conditions: 0.03, 0.3, or 3 mg/kg C75 every 4th day from day 14, room air, dose dependent
Method: Mice were challenged with bleomycin or saline for 25 days, and every 4th day, beginning 14 days following initial bleomycin insult, were treated with vehicle (methocel/0.1% DMSO) or with 0.03 mg/kg, 0.3 mg/kg, or 3 mg/kg C75. Oxygen saturation (SpO2) levels (determined on room air) were measured.
Bleomycin-induced fibrotic conditions caused reduced, time-dependent fluctuations in oxygen saturation, but inhibition of FASN activity with C75 stabilized lung gas exchange in a dose dependent manner (FIG. 7; *p-value<0.05, **p-value<0.01). Error bars reflect standard deviation from n=5 (control, BLM, 0.03 mg/kg C75), 7 (0.3 mg/kg C75), or 8 (3 mg/kg C75) animals.

[11] = Adenovirus-TGFβ model of pulmonary fibrosis; format: in vivo; conditions: adenovirus-TGFβ1 mice; 3.0 mg/kg C75 every 4th day from day 21; blood oxygen days 21 and 35, hydroxyproline and qPCR day 39
Method: Mice were infected with 1×10^8 pfu adenovirus particles expressing control (GFP) or active TGFβ1 by tracheal instillation. On day 21 all animals began treatment every 4th day with either vehicle (Methocel/saline) or 3.0 mg/kg of C75. Peripheral blood oxygen determined on days 21 and 35 (FIG. 10A). Data reflect mean+/−SEM of n=8 and n=15 for adenovirus-GFP and adenovirus-TGFβ, respectively. *P<0.05. Mice were infected with 1×10^8 pfu adenovirus particles expressing control (GFP) or active TGFβ1 by tracheal instillation. On day 21 all animals began treatment every 4th day with either vehicle (Methocel/saline) or 3.0 mg/kg of C75. Mice were sacrificed on day 39 and processed for lung hydroxyproline content (FIG. 10B). Data reflect mean+/−SEM of n=8 and n=15 for adenovirus-GFP and adenovirus-TGFβ, respectively. **P<0.01. Mice were infected with 1×10^8 pfu adenovirus particles expressing control (GFP) or active TGFβ1 by tracheal instillation. On day 21 all animals began treatment every 4th day with either vehicle (Methocel/saline) or 3.0 mg/kg of C75. Mice were sacrificed on day 39 and processed for qPCR expression of connective tissue growth factor (CTGF), alpha smooth muscle actin (α-SMA), and collagen Iα1 (Col Iα1). Data reflect mean+/−SEM of n=8 and n=15 for adenovirus-GFP and adenovirus-TGFβ, respectively. *P<0.05, **P<0.01.

FASN [12] = experiment: Western blot of TGFβ induced FASN expression in AKR-2B fibroblasts; format: cell-based, murine; conditions: TGFβ 10 ng/ml, Rapamycin 100 nM, Torin 200 nM, 24 hours
Method: (§5) Murine fibroblasts (AKR-2B) and human lung fibroblasts (MRCS) were transfected with either a nontargeting control siRNA (60 nmol/L) or with Smad2/3-targeting siRNA (60 nmol/L). After 72 hours of cultivation, the transient transfectants were stimulated in the absence or presence of 10 ng/ml TGFβ for 24 hours. Proteins were obtained from treated and control cells. Protein samples were Western blotted for FASN, pSmad2, pSmad3, and connective tissue growth factor (CTGF), and Western blotted for GAPDH as a loading control.
(§6) Murine fibroblasts (AKR-2B) and human lung fibroblasts (MRCS) were stimulated in the absence or presence of TGFβ (10 ng/ml) plus a PI3K inhibitor (LY294002; 10 μM), a MEK inhibitor (U0126; 10 μM), an AKT inhibitor (MK2206; 0.3 μM), a mTORC1 inhibitor (Rapamycin; 100 nM), or a mTORC1,2 inhibitor (Torin; 200 nM). Expression of pErk and pS6K/pS6K was determined at 1 and 6 hours post-stimulation while FASN, pSmad3, and GAPDH assessed at 24 hours. TGFβ induced FASN expression was abrogated in the presence of rapamycin or torin (FIGS. 3C and 3D).

FASN [13] = experiment: Western blot of TGFβ induced FASN expression in MRCS lung fibroblasts; format: cell-based, human; conditions: TGFβ 10 ng/ml, Rapamycin 100 nM, Torin 200 nM, 24 hours
Method: as §5, §6

| inflammatory cell recruitment (lymphocytes, monocytes, neutrophils) [9] | Molecule | TGFβ induced Col I, Col IV, and FN expression [1] | TGFβ induced Col I, Col IV, and FN expression [2] | TGFβ induced colony formation (AKR-2B cells [3]) | TGFβ induced cell migration (AKR-2B cells [4]) | TGFβ induced cell migration (MRCS cells [5]) | in vitro cell proliferation (OD570, cell counts) (AKR-2B cells [6]) | in vitro cell proliferation (OD570, cell counts) (MRCS cells [7]) | murine liver enzymes (serum ALP, ALT, albumin) [8] | FN, CTGF, and Col I expression (qPCR, lung tissue) (FN, CTGF, and Col I) | lung gas exchange (oxygen saturation, SpO2) [10] | lung function [11] | TGFβ induced FASN expression (FASN [12]) | TGFβ induced FASN expression (FASN [13]) |
| --- | --- | --- | --- | --- | --- | --- | --- | --- | --- | --- | --- | --- | --- | --- |
| no effect | C=C1C(=O)OC(CCCCCCCC)C1C(=O)O (centres unmarked) [C75] | suppressed | suppressed | suppressed | suppressed | suppressed | does not inhibit | does not inhibit | no effect | reduced | stabilized | stabilizes lung function |  |  |
|  | Torin |  |  |  |  |  |  |  |  |  |  |  | abrogated | abrogated |
